The results in this text go back to US10954287B2, “Ras binding peptides and methods of use” (Ra Pharmaceuticals, Inc., priority 2016, dated 2021).

SMILES strings stand for the structures.

For the first test, the system named is GMPPNP-loaded H-Ras or GTP-loaded K-Ras. The experiment in a line: Fluorescence polarization competition assay with TAMRA-labeled probe R4007. It is filed as binding, human. The following applies: 120 nM Ras, 30 nM probe R4007, 60 minutes at room temperature; read-out: Probe displacement (nM IC50). In short, it runs like this:
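120 nM GMPPNP-loaded H-Ras or GTP-loaded K-Ras was preincubated with 30 nM TAMRA-labeled R4007 probe for 20 min at room temperature in Tris pH 7.5 buffer with MgCl2, EDTA and Triton X-100. Serially diluted competitor was then added for 60 min. Polarization was read at 535/595 nm, with Ki from a one-site Ki fit and IC50 from probe displacement.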
Usually IC50 stands for the concentration that gives 50% inhibition. Consider `CCC[C@H](NC(C)=O)C(=O)N[C@H]1CSCc2cccc(c2)CSC[C@@H](C(=O)N[C@H](CO)C(=O)N[C@@H](CCCCN)C(=O)NCC(=O)N[C@@H](CSSC(C)(C)C)C(=O)N[C@H](C(=O)N[C@H](C(=O)N[C@@H](CC(C)C)C(=O)O)C(C)C)C(C)C)NC(=O)CN(C)C(=O)[C@H](Cc2ccc(F)cc2)N(C)C(=O)[C@H](Cc2ccc(O)cc2)NC(=O)[C@H](Cc2c[nH]c3ncccc23)NC(=O)[C@H](c2ccccc2)NC(=O)[C@H](C)N(C)C(=O)[C@H](Cc2c[nH]cn2)NC(=O)[C@H](CCCCN)NC(=O)[C@H](C(C)(C)C)NC(=O)[C@H](Cc2ccc(O)cc2)NC1=O` (relative stereo) [Compound R4110, ACE-NVA-CYS*-TYR-TBG-LYS-HIS-NMA-PHG-7AW-TYR-MFF-SAR-CYS*-DSER-LYS-GLY-TDSPA-VAL-VAL-LEU], for which the IC50 was 16.4 nM.

As for `CCC[C@H](NC(C)=O)C(=O)N[C@H]1CSCc2cccc(c2)CSC[C@@H](C(=O)NCC(=O)NCC(=O)NCC(=O)N[C@@H](CS)C(=O)N[C@H](C(=O)N[C@H](C(=O)N[C@@H](CCSC)C(=O)O)[C@@H](C)CC)C(C)C)NC(=O)CN(C)C(=O)[C@H](Cc2ccc(F)cc2)N(C)C(=O)[C@H](Cc2ccc(O)cc2)NC(=O)[C@H](Cc2c[nH]c3ncccc23)NC(=O)[C@H](c2ccccc2)NC(=O)[C@H](C)N(C)C(=O)[C@H](Cc2c[nH]cn2)NC(=O)[C@H](CCCCN)NC(=O)[C@H](C(C)(C)C)NC(=O)[C@H](Cc2ccc(O)cc2)NC1=O` (relative stereo) [Compound R4131, ACE-NVA-CYS*-TYR-TBG-LYS-HIS-NMA-PHG-7AW-TYR-MFF-SAR-CYS*-GLY-GLY-GLY-CYS-VAL-ILE-MET], the IC50 turned out to be 278 nM.

In the case of `CCC[C@H](NC(=O)CCCC(=O)O)C(=O)N[C@H]1CSCc2cccc(c2)CSC[C@@H](C(N)=O)NC(=O)CN(C)C(=O)[C@H](Cc2ccc(F)cc2)N(C)C(=O)[C@H](Cc2ccc(O)cc2)NC(=O)[C@H](Cc2c[nH]c3ncccc23)NC(=O)[C@H](c2ccccc2)NC(=O)[C@H](C)N(C)C(=O)[C@H](Cc2c[nH]cn2)NC(=O)[C@H](CCCCN)NC(=O)[C@H](C(C)(C)C)NC(=O)[C@H](Cc2ccc(O)cc2)NC1=O` (relative stereo) [Compound R4103, GLA-NVA-CYS*-TYR-TBG-LYS-HIS-NMA-PHG-7AW-TYR-MFF-SAR-CYS*-NH2], the IC50 came out at 2 nM.

For `C#CC[C@H](NC(=O)CCOCCOCCOCCOCCNC(=O)[C@@H]1CSCc2cccc(c2)CSC[C@H](NC(=O)[C@H](CCC)NC(C)=O)C(=O)N[C@@H](Cc2ccc(O)cc2)C(=O)N[C@@H](C(C)(C)C)C(=O)N[C@@H](CCCCN)C(=O)N[C@@H](Cc2c[nH]cn2)C(=O)N(C)[C@@H](C)C(=O)N[C@@H](c2ccccc2)C(=O)N[C@@H](Cc2c[nH]c3ncccc23)C(=O)N[C@@H](Cc2ccc(O)cc2)C(=O)N(C)[C@@H](Cc2ccc(F)cc2)C(=O)N(C)CC(=O)N1)C(N)=O` (relative stereo) [Compound R4107, ACE-NVA-CYS*-TYR-TBG-LYS-HIS-NMA-PHG-7AW-TYR-MFF-SAR-CYS*-PEG4PA-PRG-NH2], the half-inhibitory concentration (IC50) is 9.42 nM.

On to `C[C@H]1C(=O)N[C@@H](c2ccccc2)C(=O)N[C@@H](Cc2c[nH]c3ncccc23)C(=O)N[C@@H](Cc2ccc(O)cc2)C(=O)N(C)[C@@H](Cc2ccc(F)cc2)C(=O)N(C)CC(=O)NCCOCCOCCC(=O)N[C@@H](Cc2ccc(O)cc2)C(=O)N[C@@H](C(C)(C)C)C(=O)N[C@@H](CCCCN)C(=O)N[C@@H](Cc2c[nH]cn2)C(=O)N1C` (relative stereo) [Compound R4124, PEG2PA*-TYR-TBG-LYS-HIS-NMA-PHG-7AW-TYR-MFF-SAR*], for which the IC50 amounted to 88.4 nM.

For `C#CC[C@@H]1NC(=O)CN(C)C(=O)[C@H](Cc2ccc(F)cc2)N(C)C(=O)[C@H](Cc2ccc(O)cc2)NC(=O)[C@H](Cc2c[nH]c3ncccc23)NC(=O)[C@H](c2ccccc2)NC(=O)[C@H](C)N(C)C(=O)[C@H](Cc2c[nH]cn2)NC(=O)[C@H](CCCCN)NC(=O)[C@H](C(C)(C)C)NC(=O)[C@H](Cc2ccc(O)cc2)NC1=O` (relative stereo) [Compound R4145, TYR*-TBG-LYS-HIS-NMA-PHG-7AW-TYR-MFF-SAR-PRG*], the concentration for half-maximal inhibition (IC50) came out at 2800 nM.

With `CCC[C@H](NC(C)=O)C(=O)N[C@H]1CSCc2cccc(c2)CSC[C@@H](C(=O)N[C@H](CO)C(=O)N[C@@H](CCCCN)C(=O)NCC(=O)N[C@@H](CSSC(C)(C)C)C(=O)N[C@H](C(=O)N[C@H](C(=O)N[C@@H](CCSC)C(=O)O)[C@@H](C)CC)C(C)C)NC(=O)CN(C)C(=O)[C@H](Cc2ccc(F)cc2)N(C)C(=O)[C@H](Cc2ccc(O)cc2)NC(=O)[C@H](Cc2c[nH]c3ncccc23)NC(=O)[C@H](c2ccccc2)NC(=O)[C@H](C)N(C)C(=O)[C@H](Cc2c[nH]cn2)NC(=O)[C@H](CCCCN)NC(=O)[C@H](C(C)(C)C)NC(=O)[C@H](Cc2ccc(O)cc2)NC1=O` (relative stereo) [Compound R4109, ACE-NVA-CYS*-TYR-TBG-LYS-HIS-NMA-PHG-7AW-TYR-MFF-SAR-CYS*-DSER-LYS-GLY-TDSPA-VAL-ILE-MET], the IC50 was 14.2 nM.

Take `CCC[C@H](NC(C)=O)C(=O)N[C@H]1CSCc2cccc(c2)CSC[C@@H](C(N)=O)NC(=O)[C@H](CO)N(C)C(=O)[C@H](Cc2ccc(F)cc2)N(C)C(=O)[C@H](Cc2ccc(O)cc2)NC(=O)[C@H](Cc2c[nH]c3ncccc23)NC(=O)[C@H](c2ccccc2)NC(=O)[C@H](C)N(C)C(=O)[C@H](Cc2c[nH]cn2)NC(=O)[C@H](CCCCN)NC(=O)[C@H](C(C)(C)C)NC(=O)[C@H](Cc2ccc(O)cc2)NC1=O` (relative stereo) [Compound R4118, ACE-NVA-CYS*-TYR-TBG-LYS-HIS-NMA-PHG-7AW-TYR-MFF-NMS-CYS*-NH2]: the IC50 was 51.5 nM.

Regarding `CCC[C@H](NC(C)=O)C(=O)N[C@H]1CSCc2cccc(c2)CSC[C@@H](C(N)=O)NC(=O)CN(C)C(=O)[C@H](Cc2ccc(F)cc2)N(C)C(=O)[C@H](Cc2ccc(O)cc2)NC(=O)[C@H](Cc2c[nH]c3ncccc23)NC(=O)[C@H](c2ccccc2)NC(=O)[C@H](C)N(C)C(=O)[C@H](Cc2c[nH]cn2)NC(=O)[C@H](CCCCNC(=O)c2ccc(N(C)C)cc2)NC(=O)[C@H](C(C)(C)C)NC(=O)[C@H](Cc2ccc(O)cc2)NC1=O` (relative stereo) [Compound R4134, ACE-NVA-CYS*-TYR-TBG-DMABZK1-HIS-NMA-PHG-7AW-TYR-MFF-SAR-CYS*-NH2], the IC50 was 346 nM.

In another test the test system is human lung cancer cell line H358. Briefly: Cell permeability by monitoring intracellular fluorescence. It is filed as cell-based. The settings on record: H358 cells treated 3.5 hours, serum-free media; compared to negative control and scrambled R4007. Here is the method:
Cell permeability of R4007 (a TAMRA-labeled R4000 derivative) was determined in the human lung cancer cell line H358 (ATCC, Manassas, Va.). Cells were maintained in RPMI-1640 with 10% FBS at 37° C., 95% relative humidity, 5% CO2. For experiments, cells were seeded at 50,000 cells/well in growth media on 96-well glass bottom plates (Greiner, Monroe, N.C.) and incubated 24 hours prior to treatment. Media was removed from cells and replaced with indicated treatment solutions prepared in serum-free media (0.1% DMSO final). Cells were treated for 3.5 hours, then washed 3 times with PBS, fixed with 4% formaldehyde in PBS for 5 minutes at room temperature, and washed 3 times with PBS. Cell nuclei were stained with 1 μg/ml DAPI nuclear stain for 5 minutes at room temperature. Images were captured using a Zeiss Axio Observer inverted microscope with 63× oil objective with excitation 365 nm/emission 445 for DAPI and excitation 565 nm/emission 620 for TAMRA. TAMRA signal was much stronger in cells treated with R4007 as compared to negative control and cells treated with scrambled R4007.
Turning to `CCC[C@H](NC(C)=O)C(=O)N[C@H]1CSCc2cccc(c2)CSC[C@@H](C(=O)N[C@@H](Cc2cn(CCCNC(=O)c3ccc(-c4c5ccc(=[N+](C)C)cc-5oc5cc(N(C)C)ccc45)c(C(=O)[O-])c3)nn2)C(N)=O)NC(=O)CN(C)C(=O)[C@H](Cc2ccc(F)cc2)N(C)C(=O)[C@H](Cc2ccc(O)cc2)NC(=O)[C@H](Cc2c[nH]c3ncccc23)NC(=O)[C@H](c2ccccc2)NC(=O)[C@H](C)N(C)C(=O)[C@H](Cc2cnc[nH]2)NC(=O)[C@H](CCCCN)NC(=O)[C@H](C(C)(C)C)NC(=O)[C@H](Cc2ccc(O)cc2)NC1=O` [Compound R4007], the “intracellular TAMRA signal” value was “much stronger”.
